For one data set, the system named is mouse embryonic cells. Kind of data set: EPR-based analysis of integration and reduction of nitroxide Gramicidin S-peptidyl conjugates in MECs. It is filed as cell-based. Conditions: following incubation with solutions of the compounds. As for the experimental part:
Electron paramagnetic resonance (“EPR”) spectroscopy was used to monitor the cellular delivery of compounds 5a and 5b shown in FIG. 3 in mouse embryonic cells (“MEC”).
The following conditions were used during the EPR-based analysis of the integration and reduction of nitroxide Gramicidin S-peptidyl conjugates in MECs. The MECs at a concentration of 10 million MECs per mL were incubated with 10 μM of 4-AT and compound 5a, respectively. Recovered nitroxide radicals in whole cells, mitochondria, and cytosol fractions were resuspended in phosphate buffer saline (“PBS”) in the presence and absence, respectively, of 2 μM K3Fe(CN)6.

A further data set concerns caspases 3 and 7. The data set is described as follows: Caspases 3 and 7 activity in gut mucosa after hemorrhagic shock. It is filed as in vivo, rat. Conditions: 10 μM intraluminal, vs vehicle. The method, then:
Caspases 3 and 7 activity assay. Caspases 3 and 7 activity was measured using a commercially available assay kit, Caspase GIo™ 3/7 assay kit (Promega, Madison, Wis.). Briefly, 50 μl of rat gut mucosa homogenate (20 jug protein) was mixed with 50 μl of Caspase-Glo™ reagent and incubated at room temperature for 1 hour. At the end of incubation period, the luminescence of each sample was measured using a plate reading chemiluminometer (ML1000, Dynatech Laboratories, Horsham, Pa.). Activity of caspases 3 and 7 was expressed as luminescence intensity (arbitrary units per mg protein). Protein concentrations were determined using the BioRad assay (Bio-Rad Laboratories, Inc., Hercules, Calif.).
In the subsequent series of in vivo studies, the affect of intraluminal XJB-5-131 on hemorrhage-induced peroxidation of phospholipids in intestinal mucosa was examined. […] In a preferred embodiment, 0.3 mL of test solution filled the lumen of each ileal compartment.
After two hours of HS, samples of ileal mucosa from the gut sacs filled with the vehicle and XJB-5-131 were obtained and compared with ileal mucosa of normal MECs. All samples were assayed with caspase 3 or caspase 7 activity as well as the peroxidation of phosphatidylcholine (“PC”), phosphatidylethanolamine (“PE”), phosphatidylserine (“PS”), and cardiolipin (“CL”), summarized in FIG. 7.

The subject of data set [1] is KM101 human marrow stromal cells. The data set is described as follows: Irradiation survival of KM101 marrow stromal cells. It is filed as cell-based. Conditions: 10 μM; for n (shoulder): control 1.1. As for the experimental part: KM101 cells were incubated in media alone or in JP4-039 (10 μM) for one hour before irradiation or 24 hours after irradiation. The cells were irradiated to doses ranging from 0 to 6 Gy and plated in 4 well plates. Seven days later the cells were stained with crystal violet and colonies of greater than 50 cells counted. Cells incubated in JP4-039 either before or after irradiation were more radioresistant as shown by an increased shoulder of n=2.3±0.2 or 2.2±0.2, respectively compared to n of 1.1±0.1 for the KM101 cells (p=0.0309 or 0.0386, respectively).

Another data set has as its system 32D cl 3 cells. Kind of data set: Clonogenic radiation survival curves of 32D cl 3 cells (PLDR study). More on the design: key to D0: D0 in Gy, from single-hit multitarget model. The data set is classed as cell-based, mouse. As for the experimental part:
32D cl 3 cells were resuspended at 1×10^5 cells/mL in 10×100-mm tubes and divided into three groups: radiation only, post-irradiation treatment with 10 μM JP4-039, and post-irradiation treatment with 10 μM TEMPO. Cells were irradiated to doses ranging from 0 to 8 Gy and were plated immediately after irradiation.
32D cl 3 cells were resuspended at 5×10^5 cells/mL in 10×100-mm tubes and divided into three groups: radiation only, post-irradiation treatment with 10 μM JP4-039, and post-irradiation treatment with 10 μM TEMPO. Cells were irradiated to doses ranging from 0 to 8 Gy and were then incubated in exponentially growing colonies (flasks) for 24, 48 and 72 h in a high-humidity incubator at 37° C. with 95% air/5% CO2.
32D cl 3 cells were resuspended at 5×10^5 cells/mL in 10×100-mm tubes. Cells were irradiated to doses ranging from 0 to 8 Gy and were then centrifuged at 1500 RPM for 10 minutes and incubated in vertical tubes held tight in pellets with a total of 5×10^5 cells/pellet for 24, 48 and 72 h in a high-humidity incubator at 37° C. with 95% air/5% CO2.
Cells incubated under either logarithmic or PLDR conditions were resuspended at 24, 48 and 72 h after irradiation, and cell viability was assessed using an automated cell viability counter (Beckman Coulter, Fullerton, Calif.). Subsequently, at 24, 48, 72 h, cells in pellets and flasks were resuspended and treated with 10 μM JP4-039, 10 μM TEMPO, or no treatment and were plated in triplicate in semisolid methylcellulose-containing medium at viable cell concentrations ranging from 500-40,000 cells/mL. Cells were incubated in a high-humidity incubator at 37° C. with 95% air/5% CO2 for 7 d and colonies of greater than 50 cells were scored according to published methods (Epperly M W, Gretton J E, Sikora C A, Jefferson M, Bernarding M, Nie S, et al.: Mitochondrial localization of superoxide, dismutase is required for decreasing radiation-induced cellular damage. Radiat Res. 160: 568-578, 2003).
Data from radiation survival curves were analyzed using the linear-quadratic and single-hit, multitarget models (Epperly M, et al., Prevention of late effects of irradiation lung damage by manganese superoxide dismutase gene therapy. Gene Ther. 5: 196-208, 1998). Results are presented as the mean±standard error of the mean from at least three measurements. Student's t test and two-way ANOVA were used to compare means of different groups where appropriate.

Where [2] appears, read: 0 hours, 10 μM post-irradiation.

The source of these data is US8822541B2, “Use of targeted nitroxide agents in mitigating or treating radiation injury” (University of Pittsburgh—Of the Commonwealth System of …, priority 2008, dated 2014).

Molecules are shown by their SMILES.

On to `CC(C)C[C@@H](/C=C/[C@H](Cc1ccccc1)C(=O)N1CCC[C@H]1C(=O)N[C@H](C(=O)N[C@@H](CCCNC(=O)OCc1ccccc1)C(=O)NC1CC(C)(C)N([O])C(C)(C)C1)C(C)C)NC(=O)OC(C)(C)C` [XJB-5-131], for which the “concentration in the mitochondria of cultured mouse embryonic cells” value with mouse embryonic cells is given as “concentrated in the mitochondria”. The “caspase 3 and 7 activity after hemorrhagic shock” value in the data set with caspases 3 and 7 is reported as “significantly decreased”.

With `CC(C)C[C@@H](/C=C/CC(=O)NC1CC(C)(C)N([O])C(C)(C)C1)NC(=O)OC(C)(C)C` [JP4-039, TEMPO-4-yl-(S,E)-5-(tert-butoxycarbonylamino)-7-methyloct-3-enamide], the “n (shoulder)” value was found to be 2.2±0.2 in data set [1] (24 hours after irradiation) and 2.3±0.2 in data set [1] (one hour before irradiation). Further, in data set [1] (before or after irradiation), the Do result is recorded as “no significant change”. The D0 with 32D cl 3 cells (setting [2]) came out at 0.91 ± 0.11; in the data set on 32D cl 3 cells (24 hours (Flask), 10 μM), 1.22 ± 0.16; with 32D cl 3 cells (24 hours (Pellet), 10 μM) it was 1.12 ± 0.27. Also, the Ñ in the data set with 32D cl 3 cells (setting [2]) came out at 37.43±7.50; in the data set on 32D cl 3 cells (24 hours (Flask), 10 μM), 10.35±0.33; with 32D cl 3 cells (24 hours (Pellet), 10 μM), 18.49±3.90. Also, in the data set with 32D cl 3 cells (48 or 72 h after irradiation), the radiation mitigation result is “no statistically significant radiation mitigation”.
